We go through 12 molecules from US20250154144A1 (CHILDREN'S HOSPITAL MEDICAL CENTER, priority 2021, published 2025).

Like-named read-outs stand apart in the source and are kept apart here.

As usually defined, the IC50 is the point on the concentration scale where inhibition reaches its midpoint.

Test [1] addresses T1, FLT3 (Homo sapiens, UniProt P36888).
T1 sequence (P36888 27-993): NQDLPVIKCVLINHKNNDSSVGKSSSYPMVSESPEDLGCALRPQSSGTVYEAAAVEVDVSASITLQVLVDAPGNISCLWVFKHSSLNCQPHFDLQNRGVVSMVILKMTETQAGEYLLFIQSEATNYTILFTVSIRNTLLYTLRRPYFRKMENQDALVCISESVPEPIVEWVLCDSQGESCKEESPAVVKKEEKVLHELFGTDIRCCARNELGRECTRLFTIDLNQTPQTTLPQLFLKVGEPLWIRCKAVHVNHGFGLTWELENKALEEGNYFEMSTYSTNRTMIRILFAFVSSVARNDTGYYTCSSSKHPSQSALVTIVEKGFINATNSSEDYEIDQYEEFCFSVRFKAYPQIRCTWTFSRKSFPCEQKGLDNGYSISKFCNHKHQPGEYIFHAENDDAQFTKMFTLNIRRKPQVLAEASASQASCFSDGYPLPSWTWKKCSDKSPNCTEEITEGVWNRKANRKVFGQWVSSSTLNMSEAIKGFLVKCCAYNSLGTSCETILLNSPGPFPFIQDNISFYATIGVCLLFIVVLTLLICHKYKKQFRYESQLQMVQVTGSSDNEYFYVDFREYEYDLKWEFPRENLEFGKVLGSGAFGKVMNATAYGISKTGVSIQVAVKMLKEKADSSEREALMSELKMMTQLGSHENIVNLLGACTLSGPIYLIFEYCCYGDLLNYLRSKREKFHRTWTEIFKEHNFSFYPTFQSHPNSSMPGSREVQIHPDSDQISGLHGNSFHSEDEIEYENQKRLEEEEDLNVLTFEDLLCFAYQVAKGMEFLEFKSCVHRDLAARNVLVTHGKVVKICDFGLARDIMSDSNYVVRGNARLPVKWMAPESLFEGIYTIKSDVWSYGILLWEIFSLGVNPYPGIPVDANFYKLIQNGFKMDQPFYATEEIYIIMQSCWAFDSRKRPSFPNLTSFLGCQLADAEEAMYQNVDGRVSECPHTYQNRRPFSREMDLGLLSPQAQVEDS
The experiment in a line: Reaction Biology NanoBRET target engagement assay in HEK-293 cells, FLT3.

The target in test [2] is T2, IRAK4 (Homo sapiens, UniProt Q9NWZ3).
T2 sequence (Q9NWZ3 1-460): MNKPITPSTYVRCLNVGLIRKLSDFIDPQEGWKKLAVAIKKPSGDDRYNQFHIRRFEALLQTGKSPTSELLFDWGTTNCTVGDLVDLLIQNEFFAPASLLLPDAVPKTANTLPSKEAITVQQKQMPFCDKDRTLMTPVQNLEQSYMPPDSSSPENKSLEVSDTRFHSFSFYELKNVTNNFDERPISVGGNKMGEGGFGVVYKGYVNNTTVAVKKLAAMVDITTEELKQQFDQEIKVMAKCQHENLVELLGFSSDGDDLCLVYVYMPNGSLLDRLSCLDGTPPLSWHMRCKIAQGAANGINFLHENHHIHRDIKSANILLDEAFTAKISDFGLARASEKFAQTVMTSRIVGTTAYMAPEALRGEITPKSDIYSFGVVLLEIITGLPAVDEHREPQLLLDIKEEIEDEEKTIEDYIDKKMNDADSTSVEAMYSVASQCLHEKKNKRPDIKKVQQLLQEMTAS
The test is described as follows: RBC HotSpot Kinase Assay, IRAK4. The settings on record: IRAK4 IC50.

Test [3] concerns the target T2, IRAK4. The test is described as follows: Reaction Biology NanoBRET target engagement assay in HEK-293 cells, IRAK4. The settings on record: NanoBRET IRAK4 IC50, HEK-293 cells. For orientation: BRET reads energy transfer from a luciferase to a nearby fluorophore.
The target in test [4] is T3, FLT3 (Homo sapiens, UniProt P36888).
T3 sequence (P36888 610-943 limits assumed): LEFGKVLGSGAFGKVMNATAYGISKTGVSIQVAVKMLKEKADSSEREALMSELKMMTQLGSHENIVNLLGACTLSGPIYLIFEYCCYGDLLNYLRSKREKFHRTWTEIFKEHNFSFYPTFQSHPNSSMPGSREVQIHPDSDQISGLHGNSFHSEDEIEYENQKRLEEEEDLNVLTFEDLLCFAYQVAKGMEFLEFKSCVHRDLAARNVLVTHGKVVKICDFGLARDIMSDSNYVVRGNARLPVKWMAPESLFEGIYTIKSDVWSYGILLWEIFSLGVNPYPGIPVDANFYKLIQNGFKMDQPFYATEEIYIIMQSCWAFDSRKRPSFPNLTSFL
The test is described as follows: RBC HotSpot Kinase Assay, FLT3.

The test system of test [5] is MOLM14 F691L cells. The experiment in a line: cells. The test is classed as cell-based. The conditions noted are these: 48 hours, Cell Titer Glo, read-out: MOLM14 F691L IC50. In general terms: ATP-based viability assays read luminescence as a measure of living cells.
The target of test [6] is IRAK1 (Homo sapiens, UniProt P51617). The test is described as follows: RBC HotSpot Kinase Assay, IRAK1. The conditions noted are these: IRAK1 IC50.
Test [7] deals with MOLM14 D835Y cells. The experiment in a line: cells. Type of test: cell-based. The settings on record: 48 hours, Cell Titer Glo, read-out: MOLM14 D835Y IC50.
Where [8] appears, read: NanoBRET FLT3 IC50, HEK-293 cells.

IRAK1, sequence (P51617 whole entry): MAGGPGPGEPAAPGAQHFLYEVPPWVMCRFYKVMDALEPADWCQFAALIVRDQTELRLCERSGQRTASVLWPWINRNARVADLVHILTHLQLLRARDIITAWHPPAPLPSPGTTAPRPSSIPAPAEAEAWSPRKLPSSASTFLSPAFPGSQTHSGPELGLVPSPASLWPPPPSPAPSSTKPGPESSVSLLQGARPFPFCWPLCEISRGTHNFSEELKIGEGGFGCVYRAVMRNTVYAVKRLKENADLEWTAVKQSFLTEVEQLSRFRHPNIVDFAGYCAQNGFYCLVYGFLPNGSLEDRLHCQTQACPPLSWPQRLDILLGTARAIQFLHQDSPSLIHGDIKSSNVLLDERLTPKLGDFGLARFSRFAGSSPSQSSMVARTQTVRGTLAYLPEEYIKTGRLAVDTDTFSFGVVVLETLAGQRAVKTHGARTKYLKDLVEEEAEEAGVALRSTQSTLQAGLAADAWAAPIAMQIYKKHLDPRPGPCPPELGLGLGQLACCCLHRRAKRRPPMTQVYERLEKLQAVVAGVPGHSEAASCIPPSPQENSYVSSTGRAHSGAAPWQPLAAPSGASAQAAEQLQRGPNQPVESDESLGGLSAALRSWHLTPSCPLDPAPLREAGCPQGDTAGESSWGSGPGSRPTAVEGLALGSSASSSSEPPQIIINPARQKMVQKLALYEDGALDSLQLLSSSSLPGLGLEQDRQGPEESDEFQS

Turning to `CC(O)(c1cn2c(-c3cncc(N[C@H]4CNCC[C@@H]4F)n3)cnc2cn1)C(F)(F)F` (single isomer, unassigned) [Compound 76], the IC50 in test [1] (setting [8]) is 3.86 µM; in test [2], 0.002 µM; in test [3], 0.019 µM; in test [4] (FLT3 IC50), below 0.0005 µM; in test [5] (Homo sapiens, MOLM-14, 48 h), 0.686 µM; in test [6], 0.008 µM. The 50% inhibitory concentration (IC50) in test [7] was 0.486 µM.

For `CC(C)Oc1ccn2c(-c3ccnc(N[C@H]4CNC[C@@H]4F)n3)cnc2c1` [Compound 25, N-((3S,4S)-4-fluoropyrrolidin-3-yl)-4-(7-isopropoxyimidazo[1,2-a]pyridin-3-yl)pyrimidin-2-amine], the IC50 was 0.034 µM in test [1] (setting [8]); 0.003 µM in test [2]; below 0.0005 µM in test [3]; 0.0008 µM in test [4] (FLT3 IC50); 0.596 µM in test [5] (Homo sapiens, MOLM-14, 48 h); 0.024 µM in test [6]. Further, the IC50 in test [7] (Homo sapiens, MOLM-14, 48 h) was determined as 0.053 µM.

As to `CC(C)(O)c1ccc2ncc(-c3cncc(N[C@H]4CNCC[C@@H]4F)n3)n2c1` [Compound 18, 2-(3-(6-(((3S,4S)-4-fluoropiperidin-3-yl)amino)pyrazin-2-yl)imidazo[1,2-a]pyridin-6-yl)propan-2-ol], the concentration for half-maximal inhibition (IC50) in test [1] (setting [8]) amounted to 2.82 µM; in test [2], 0.003 µM; in test [3] it was 0.0008 µM; in test [4] (FLT3 IC50), 0.001 µM; in test [6], 0.116 µM.

Consider `CC(O)(c1cn2c(-c3ccnc(N[C@H]4CNC[C@@H]4F)n3)cnc2cn1)C(F)(F)F` (single isomer, unassigned) [Compound 69], for which the IC50 in test [1] (setting [8]) was 1.95 µM; in test [2], 0.001 µM; in test [3] it was 0.024 µM; in test [4] (FLT3 IC50), below 0.0005 µM; in test [5] (Homo sapiens, MOLM-14, 48 h), 1.22 µM; in test [6] it was 0.027 µM. For the same molecule, the concentration for half-maximal inhibition (IC50) in test [7] worked out at 0.193 µM.

For the molecule `F[C@H]1CCNC[C@@H]1Nc1nccc(-c2cnc3cc(OC4CC4)ccn23)n1` [Compound 39, 4-(7-cyclopropoxyimidazo [1,2-a]pyridin-3-yl)-N-((3S,4S)-4-fluoropiperidin-3-yl)pyrimidin-2-amine], the IC50 in test [1] (setting [8]) was 0.015 µM; in test [2] it was 0.002 µM; in test [3] it was 0.0008 µM; in test [4] (FLT3 IC50), below 0.0005 µM; in test [5] (Homo sapiens, MOLM-14, 48 h) it was 0.172 µM; in test [6], 0.011 µM. In addition, in test [7] (Homo sapiens, MOLM-14, 48 h), the IC50 was found to be 0.024 µM.

On to `FC(F)Oc1ccn2c(-c3cncc(N[C@H]4CNCC[C@@H]4F)n3)cnc2c1` [Compound 15, 6-(7-(difluoromethoxy)imidazo [1,2-a]pyridin-3-yl)-N-((3S,4S)-4-fluoropiperidin-3-yl)pyrazin-2-amine], for which the IC50 in test [1] (setting [8]) is 0.367 µM; in test [2], 0.004 µM; in test [3], 0.01 µM; in test [4] (FLT3 IC50) it was below 0.0005 µM; in test [5] (Homo sapiens, MOLM-14, 48 h), 0.154 µM; in test [6], 0.069 µM. In addition, in test [7] (Homo sapiens, MOLM-14, 48 h), the IC50 turned out to be 0.077 µM.

For the molecule `CC(O)(c1cn2c(-c3ccnc(N[C@@H]4CCCNC4)n3)cnc2cn1)C(F)(F)F` (single isomer, unassigned) [Compound 68], the IC50 in test [1] was 0.388 µM; in test [2], 0.004 µM; in test [3], 0.003 µM; in test [4] (read-out: FLT3 IC50), below 0.0005 µM; in test [5] it was 0.545 µM; in test [6], 0.007 µM. Besides, the IC50 in test [7] amounted to 0.086 µM.

`FC(F)COc1ccn2c(-c3cncc(N[C@H]4CNCC[C@@H]4F)n3)cnc2c1` [Compound 9, 6-(7-(2,2-difluoroethoxy)imidazo[1,2-a]pyridin-3-yl)-N-((3S,4S)-4-fluoropiperidin-3-yl)pyrazin-2-amine]: the IC50 in test [1] (setting [8]) was 0.022 µM; in test [2] it was 0.001 µM; in test [3], below 0.0005 µM; in test [4] (FLT3 IC50), below 0.0005 µM; in test [5] (Homo sapiens, MOLM-14, 48 h), 0.031 µM; in test [6], 0.065 µM. Moreover, in test [7] (Homo sapiens, MOLM-14, 48 h), the IC50 was determined as 0.019 µM.

For the molecule `COc1cc2ncc(-c3cncc(N[C@H]4CNCC[C@@H]4F)n3)n2cc1C(C)(C)O` [Compound 21, 2-(3-(6-(((3S,4S)-4-fluoropiperidin-3-yl)amino)pyrazin-2-yl)-7-methoxyimidazo[1,2-a]pyridin-6-yl)propan-2-ol], the IC50 in test [1] (setting [8]) is 0.159 µM; in test [2], below 0.0005 µM; in test [3], below 0.0005 µM; in test [4] (FLT3 IC50), below 0.0005 µM; in test [5] (Homo sapiens, MOLM-14, 48 h), 0.034 µM; in test [6], 0.0005 µM. Also, in test [7] (Homo sapiens, MOLM-14, 48 h), the IC50 was determined as 0.027 µM.

In the case of `CC(O)(c1cn2c(-c3ccnc(N[C@H]4CNCC[C@@H]4F)n3)cnc2cn1)C(F)(F)F` (single isomer, unassigned) [Compound 70], the IC50 in test [1] (setting [8]) was 1.12 µM; in test [2], 0.043 µM; in test [3], 0.029 µM; in test [4] (read-out: FLT3 IC50), below 0.0005 µM; in test [6], 0.012 µM.

For `CC(C)(O)c1ccc2ncc(-c3ccnc(N[C@H]4CNCC[C@@H]4F)n3)n2c1` [Compound 42, 2-(3-(2-(((3S,4S)-4-fluoropiperidin-3-yl)amino)pyrimidin-4-yl)imidazo[1,2-a]pyridin-6-yl)propan-2-ol], the IC50 in test [1] (setting [8]) is 0.137 µM; in test [2], 0.004 µM; in test [3], 0.002 µM; in test [4] (FLT3 IC50), below 0.0005 µM; in test [6], 0.158 µM.

As to `CC(C)Oc1ccn2c(-c3ccnc(N[C@@H]4CCCNC4)n3)cnc2c1` [Compound 26, (R)-4-(7-isopropoxyimidazo[1,2-a]pyridin-3-yl)-N-(piperidin-3-yl)pyrimidin-2-amine], the IC50 is 0.002 µM in test [1] (setting [8]); 0.002 µM in test [2]; below 0.0005 µM in test [3]; below 0.0005 µM in test [4] (FLT3 IC50); 0.168 µM in test [5] (Homo sapiens, MOLM-14, 48 h); 0.053 µM in test [6]. The IC50 in test [7] (Homo sapiens, MOLM-14, 48 h) is 0.019 µM.
